Results reported in patent US4301313A, “Halogenated ethynyl biphenyls” (Eli-Lilly and Company, priority 1974, dated 1981).

Tests used:
[1] = ultraviolet-induced erythema blocking test, oral (modified Winder method); format: in vivo, guinea pig (male albino); conditions: Cavia porcellus, guinea pig, weighted scores 1.0-2.5 h after UV, dose which provides 50% inhibition
Procedure: The compounds of the present invention were evaluated for anti-inflammatoryactivity by the ultraviolet-induced erythema blocking test. The test procedures were a modification of the Winder method (Winder, C. V.; Wax, J.; Burr, V.; Been, M.; and Posiere, C. E.: A Study of Pharmacological Influences on Ultraviolet Erythema in Guinea Pigs. Arch. Int. Pharmacodyn. 116: 261, 1958). Male albino guinea pigs weighing 240-300 gm. were used. The hair on the back was clipped and chemically depilated 15-18 hours before each experiment. The animals were fasted overnight, and on the day of the experiment, were randomized and placed in clear plastic partitioned holders 10×20 cm. wide and 15 cm. high.
The compounds to be tested were suspended in 1% methyl cellulose in water, utilizing a tissue homogenizer. The suspensions were administered orally in a volume of 2.0 ml./kg. of body weight. Control animals received an equal amount of the vehicle.
The source of ultraviolet light was a Hanovia lamp (Kromayer-Model 10). A notebook reinforcement ring was placed upon the lens of the lamp to provide an area of contrast for grading purposes. The lens was then placed in contact with the skin of the guinea pig's back. Exposure time to UV was for a period of 4 seconds. Beginning one hour after exposure and thereafter at half-hour intervals for another 11/2 hours, the degree of resulting erythema was graded by an arbitrary scoring system based upon the degree of contrast and redness formed. Anti-inflammatory agents delay the development of the erythema and have their greatest effect at the initial grading periods. The scores were, therefore, weighted by factors of 4, 3, 2, and 1 at the 1.0, 1.5, 2.0, and 2.5 hour scoring times, respectively. The erythema was graded as follows:
Total scores from each treatment group of four guinea pigs were compared to the scores of the control group. The percent inhibition was calculated as follows: [formula] In the case of compounds showing inhibition, retesting was carried out at a plurality of doses to enable calculation of an ED50 for each such compound. "ED50 " designates that dose which provides 50% inhibition. Calculation of the ED50 was either by a standard linear regression method or by estimation from a dose-response curve of three or more points. The compounds so tested and their ED50 s were as follows: […]

[2] = carrageenin-induced hind paw inflammation; format: in vivo; conditions: Rattus norvegicus
Procedure: Representative compounds were also evaluated for anti-inflammatory activity in the test method described by C. A. Winter at 111 Proc. Soc. Exp. Biol. Med., 544 (1962). In this method, inflammation is created by injecting carrageenin into the hind paw of rats. Test compounds are administered prior to injection to determine percent inhibition of the subsequent inflammation, in comparison with control animals.

[3] = analgesic activity, acetic acid-induced writhing; format: in vivo, mouse (albino male); conditions: mouse, p.o., dose reducing writhing frequency by 50%; 30, 90, 180 minutes after administration
Procedure: Representative compounds were also evaluated for analgesic activity. The evaluation was conducted by using acetic acid-induced writhing in mice as the pain model. Clinically effective analgesis are effective when tested in this model: see Koster et al., "Acetic Acid for Analgesic Screening," 18 Fed. Proc. 412 (1959).
In a method similar to that reported by Koster et al., standard strain albino male mice weighing 20-22 grams were fasted overnight. The respective compound or vehicle (as control) was administered by gastric lavage (p.o.). Each compound was administered in an aqueous suspension of 1% methylcellulose in water. […] At 30, 90, and 180 minutes after administration, writhing was induced by the intraperitoneal administration of 55 mg./kg. of acetic acid (0.55%). Each treatment group consisted of 5 mice and separate groups were examined at each observation time. The total number of writhes for the treatment group were counted in a 10-minute observation period starting 5 minutes after the acetic acid administration. The treatment totals were compared to controls and a percent inhibition calculated as follows: [formula] […] An ED50, which represented the dose that would reduce the writhing frequency by 50%, was estimated from a dose-reponse curve of three or more points. A dose range was reported if only two points were availale for the dose response curve and they bracketed the 50% level. If data was available at 100 mg./kg., only, then the estimated ED50 was reported simply as less than 100 (<100).

[4] = adjuvant-induced arthritis test (paw volume); format: in vivo, rat (male albino); conditions: rat, oral

Row | Compound | ED50 [1] [mg/kg] | inhibition in vivo at 10 mg/kg [2] [%] | Estimated ED50 [3] [mg/kg] | inhibition in vivo at 50 mg/kg [2] [%] | further results
1 | C#Cc1ccc(-c2cccc(F)c2)cc1 [(4-(3-fluorophenyl)phenyl)acetylene, (4-(3-Fluorophenyl)phenyl)acetylene] | 3 | 17 | 35 |  | 
2 | C#Cc1ccc(OCCCC)cc1C [(2-methyl-4-n-butoxyphenyl)acetylene, (2-Methyl-4-n-butoxyphenyl)acetylene] | 35 |  |  |  | inhibition in vivo at 25 mg/kg [2]: 9%
3 | C#Cc1cccc(Oc2ccccc2F)c1 [(3-(2-fluorophenoxy)phenyl)acetylene, (3-(2-Fluorophenoxy)phenyl)acetylene] | 12 |  |  | 32 | 
4 | C#Cc1cc(C)c(Oc2ccccc2)c(C)c1 [(3,5-dimethyl-4-phenoxyphenyl)acetylene, (3,5-Dimethyl-4-phenoxyphenyl)acetylene] | 11 |  | < 100 | 29 | 
5 | C#Cc1ccc(Oc2ccccc2)cc1C [(2-methyl-4-phenoxyphenyl)acetylene, (2-Methyl-4-phenoxyphenyl)acetylene] | 8 |  | < 100 |  | inhibition in vivo at 25 mg/kg [2]: 33%
6 | C#Cc1ccc(-c2ccccc2)c(C)c1 [(3-methyl-4-phenylphenyl)acetylene, (3-Methyl-4-phenylphenyl)acetylene] | 0.09 | 56 | 50 | 66 | inhibition in vivo at 3 mg/kg [2]: 37%; inhibition in vivo at 30 mg/kg [2]: 56%
7 | C#Cc1ccc(-c2c(F)cccc2F)cc1 [(4-(2,6-difluorophenyl)phenyl)acetylene, (4-(2,6-Difluorophenyl)phenyl)acetylene] | 12 | 34 | < 100 | 49 | inhibition in vivo at 3 mg/kg [2]: 7%; inhibition in vivo at 30 mg/kg [2]: 37%
8 | C#Cc1cccc(Oc2ccccc2)c1 [(3-phenoxyphenyl)acetylene, (3-Phenoxyphenyl)acetylene] | 13 | 7 | < 100 |  | 
9 | C#Cc1ccc(C2CCCCC2)c(Cl)c1 [(3-chloro-4-cyclohexylphenyl)acetylene, (3-Chloro-4-cyclohexylphenyl)acetylene] | 1 |  | < 100 |  | 
10 | (2-(2,5-difluorophenyl)phenyl)acetylene |  |  |  |  | Percent Inhibition of Volume Increase, Day 7 ([4]; dose 25 (unit not given)): 38%; Percent Inhibition of Volume Increase, Day 14 ([4]; dose 25 (unit not given)): 15%
11 | C#Cc1ccc(-c2ccccc2)cc1C [(2-methyl-4-phenylphenyl)acetylene] | 20 |  | 60 |  | 
12 | C#Cc1ccc(-c2ccccc2C)cc1 [(4-(o-tolyl)phenyl)acetylene, (4-(o-Tolyl)phenyl)acetylene] | 0.9 | 6 | 35 | 48 | inhibition in vivo at 3 mg/kg [2]: 16%; inhibition in vivo at 30 mg/kg [2]: 53%
13 | C#Cc1ccc(Oc2ccccc2)c(C)c1 [(3-methyl-4-phenoxyphenyl)acetylene, (3-Methyl-4-phenoxyphenyl)acetylene] | 10 | 16 | < 100 |  | 
14 | C#Cc1ccc(-c2ccc(F)cc2F)cc1 [(4-(2,4-difluorophenyl)phenyl)acetylene, (4-(2,4-Difluorophenyl)phenyl)acetylene] | 4 |  | 4 |  | inhibition in vivo at 25 mg/kg [2]: 31%
15 | C#Cc1ccc(-c2cc(F)ccc2F)cc1 [(4-(2,5-difluorophenyl)phenyl)acetylene, (4-(2,5-Difluorophenyl)phenyl)acetylene] | 4.4 |  | 10 |  | inhibition in vivo at 25 mg/kg [2]: 43%
16 | C#Cc1ccc(-c2ccccc2)c(Cl)c1 [(3-chloro-4-phenylphenyl)acetylene, (3-Chloro-4-phenylphenyl)acetylene] | 0.033 | 62 | 30 |  | Percent Inhibition of Volume Increase, Day 7 ([4]; dose 0.1 (unit not given)): 21%; Percent Inhibition of Volume Increase, Day 14 ([4]; dose 0.1 (unit not given)): 36%; Percent Inhibition of Volume Increase, Day 7 ([4]; dose 0.3 (unit not given)): 56%; Percent Inhibition of Volume Increase, Day 14 ([4]; dose 0.3 (unit not given)): 50%; Percent Inhibition of Volume Increase, Day 7 ([4]; dose 1 (unit not given)): 34%; Percent Inhibition of Volume Increase, Day 14 ([4]; dose 1 (unit not given)): 41%; Percent Inhibition of Volume Increase, Day 7 ([4]; dose 3 (unit not given)): 30%; Percent Inhibition of Volume Increase, Day 14 ([4]; dose 3 (unit not given)): 45%; inhibition in vivo at 0.3 mg/kg ([2]; 0.3 mg./kg.): 23%; inhibition in vivo at 3 mg/kg [2]: 41%
17 | C#Cc1ccc(-c2ccccc2)cc1OC [(2-methoxy-4-phenylphenyl)acetylene, (2-Methoxy-4-phenylphenyl)acetylene] | 39 | 7 |  | 51 | inhibition in vivo at 1 mg/kg ([2]; 1 mg./kg.): 25%
18 | C#Cc1ccc(-c2ccccc2)c(OC)c1 [(3-methoxy-4-phenylphenyl)acetylene, (3-Methoxy-4-phenylphenyl)acetylene] | 0.6 |  |  |  | 
19 | C#Cc1ccc(-c2ccccc2Cl)cc1 [(4-(2-chlorophenyl)phenyl)acetylene, (4-(2-Chlorophenyl)phenyl)acetylene] | 0.8 |  | 20 to 100 | 52 | 
20 | C#Cc1ccc(-c2ccccc2)c(F)c1 [(3-fluoro-4-phenylphenyl)acetylene, (3-Fluoro-4-phenylphenyl)acetylene] | 0.5 |  | 10 |  | 
21 | C#Cc1cccc(-c2ccccc2)c1 [3-biphenylylacetylene, 3-Biphenylylacetylene] | 7 |  | 50 to 100 | 32 | 
22 | C#Cc1ccc(Oc2ccccc2F)cc1 [(4-(2-fluorophenoxy)phenyl)acetylene, (4-(2-Fluorophenoxy)phenyl)acetylene] | 16.5 | 45 | < 100 |  | inhibition in vivo at 3 mg/kg [2]: 28%; inhibition in vivo at 30 mg/kg [2]: 68%
23 | C#Cc1ccc(F)c(-c2ccccc2F)c1 [(4-Fluoro-3-(2-fluorophenyl)phenyl)acetylene] | 23 | 23 |  | 45 | inhibition in vivo at 3 mg/kg [2]: 13%; inhibition in vivo at 30 mg/kg [2]: 43%
